Test results taken from paper PMC9516332 (Frontiers in Oncology, 2022).
Where two headings read alike, the source gives them in different places.

Legend:
EGFR-mutant cell lines = test: Cell viability assay, EGFR-mutant versus EGFR wild-type cell lines; assay type: cell-based
[1] = tested on: ERBB2-amplified cell lines; test: Cell viability assay, ERBB2-amplified versus non-amplified cell lines; assay type: cell-based; settings: MANOVA
Description: The effect of compounds on cell viability was determined by measuring intracellular ATP content as an indirect readout of cell number ([15]). […] A vehicle-treated control (0.4% (v/v) DMSO) was included in quadruplicate on the same assay plate to determine maximum cell growth. The final DMSO concentration was 0.4% (v/v) in all wells. After incubation for another 72 hours, ATP content in each well was measured as described previously. […] When the cell doubling deviated > 2-fold from the historic doubling as determined in multiple independent experiments, the experiment was invalidated and repeated. […] IC50 values of kinase inhibitors were calculated by fitting a 4-parameter logistic curve to the percentage viability values using IDBS XLfit5 (IDBS, Guildford, United Kingdom). […] . For some compounds, biphasic curves were measured in one or more cell lines, indicating a dual mechanism of action in these cell lines ([29]). […] For all bioinformatic analyses, ^10log(IC50 [nmol/L]) values were used.
Cell lines were classified as having an alteration in a specific cancer gene if at least one allele was altered by point mutation, insertion, deletion, fusion, or amplification. The mutation, fusion, and amplification status of the cell lines was retrieved from the COSMIC cell lines project (version 80) ([23]), Cancer Cell Line Encyclopedia (CCLE), DepMap (version 22Q1) ([16]), and Cellosaurus ([30]) databases. In order to ensure that genomic alterations included in subsequent analyses were relevant to cancer growth and drug response, mutations were only included when they were either reported as a hotspot mutation in Cancer Hotspots ([31]), described as oncogenic and gain-of-function in OncoKB or JAX CKB, or described as pathogenic in the literature. […] J82 was therefore annotated as FGFR3 wild-type.
All statistical analyses were performed in R (version 4.1.2), unless otherwise indicated. A two-sided Mann-Whitney test was performed for two-group comparisons. […] . Multivariate analysis of variance (MANOVA) was performed for multi-group comparison.

[2] = target: panel of 255 wild-type kinases (Homo sapiens, UniProt Q96SB4); settings: kinase SRPK1; 1 µmol/L single concentration; ref DOI: 10.1158/1535-7163.MCT-18-0877; cited from earlier work
[3] = target: panel of 255 wild-type kinases (Homo sapiens, UniProt Q9Y243); settings: AKT3 kinase assay; 1 µmol/L single concentration; ref DOI: 10.1158/1535-7163.MCT-18-0877; cited from earlier work
[4] = target: panel of 255 wild-type kinases (Homo sapiens, UniProt Q13557); settings: CaMK2δ kinase assay; 1 µmol/L single concentration; ref DOI: 10.1158/1535-7163.MCT-18-0877; cited from earlier work
[5] = target: panel of 255 wild-type kinases (Homo sapiens, UniProt Q00526); settings: CDK3/CycE1 kinase assay; 1 µmol/L single concentration; ref DOI: 10.1158/1535-7163.MCT-18-0877; cited from earlier work
[6] = target: panel of 255 wild-type kinases (Homo sapiens, UniProt Q15349); settings: kinase RSK3; 1 µmol/L single concentration; ref DOI: 10.1158/1535-7163.MCT-18-0877; cited from earlier work
[7] = target: panel of 255 wild-type kinases (Homo sapiens, UniProt P10721); settings: kinase KIT; 1 µmol/L single concentration; ref DOI: 10.1158/1535-7163.MCT-18-0877; cited from earlier work
[8] = target: panel of 255 wild-type kinases (Homo sapiens, UniProt Q9UM73); settings: ALK kinase assay; 1 µmol/L single concentration; ref DOI: 10.1158/1535-7163.MCT-18-0877; cited from earlier work
[9] = tested on: panel of 255 wild-type kinases; settings: cited from earlier work
[10] = target: panel of 255 wild-type kinases (Homo sapiens, UniProt O75116); settings: kinase ROCK2; 1 µmol/L single concentration; ref DOI: 10.1158/1535-7163.MCT-18-0877; cited from earlier work
[11] = target: panel of 255 wild-type kinases (Homo sapiens, UniProt O43683); settings: BUB1/BUB3 kinase assay; 1 µmol/L single concentration; ref DOI: 10.1158/1535-7163.MCT-18-0877; cited from earlier work
[12] = target: panel of 255 wild-type kinases (Homo sapiens, UniProt P27448); settings: MARK3; 1 µmol/L single concentration; ref DOI: 10.1158/1535-7163.MCT-18-0877; cited from earlier work
[13] = target: panel of 255 wild-type kinases (Homo sapiens, UniProt O95819); settings: kinase HGK; 1 µmol/L single concentration; ref DOI: 10.1158/1535-7163.MCT-18-0877; cited from earlier work
[14] = tested on: FLT3 ITD-mutant cell lines MOLM-13 and MV4-11; test: Cell viability assay; assay type: cell-based
[15] = target: panel of 255 wild-type kinases (Homo sapiens, UniProt P12931); settings: kinase SRC; 1 µmol/L single concentration; ref DOI: 10.1158/1535-7163.MCT-18-0877; cited from earlier work
[16] = target: panel of 255 wild-type kinases (Homo sapiens, UniProt P16591); settings: kinase FER; 1 µmol/L single concentration; ref DOI: 10.1158/1535-7163.MCT-18-0877; cited from earlier work
FGFR-altered cell lines = test: Cell viability assay, FGFR-altered versus FGFR wild-type cell lines; assay type: cell-based
FGFR3 = target: T1, FGFR3 (Homo sapiens, UniProt P22607); test: Biochemical kinase assay (MSA), IC50
T1 construct: purchased Carna Biosciences (only by web pointer)

[17] = kinase FYN [isoform b], 1 µmol/L single concentration, ref DOI: 10.1158/1535-7163.MCT-18-0877
[18] = kinase LYNb, 1 µmol/L single concentration, ref DOI: 10.1158/1535-7163.MCT-18-0877
[19] = kinase PKCβ2, 1 µmol/L single concentration, ref DOI: 10.1158/1535-7163.MCT-18-0877
[20] = kinase SRM, 1 µmol/L single concentration, ref DOI: 10.1158/1535-7163.MCT-18-0877

Compound | lower IC50 (higher potency) in EGFR-mutant compared to EGFR wild-type cell lines (EGFR-mutant cell lines; on average, MANOVA) | preferential targeting of ERBB2-amplified versus non-amplified cell lines [1] | %-inhibition at 1 µmol/L, SRPK1 [2] | %-inhibition AKT3 [3] | %-inhibition CaMK2δ [4] | %-inhibition CDK3/CycE1 [5] | %-inhibition at 1 µmol/L, RSK3 [6] | %-inhibition at 1 µmol/L, KIT [7] | %-inhibition ALK [8] | %-inhibition at 1 µmol/L, ROCK2 [10] | %-inhibition BUB1/BUB3 [11] | %-inhibition, MARK3 [12] | %-inhibition at 1 µmol/L, HGK [13] | further results
C=CC(=O)N1CCC[C@@H](n2nc(-c3ccc(Oc4ccccc4)cc3)c3c(N)ncnc32)C1 [ibrutinib] | 28 fold | 254 fold | 1.2% | -2.25% | -0.826% | 0.486% | 9% | -4.53% | 5.45% | 3.74% | 5% | -6% | -0.0249% | %-inhibition at 1 µmol/L, FYN [isoform b] [9, 17]: 87%; %-inhibition at 1 µmol/L, LYNb [9, 18]: 100%; %-inhibition at 1 µmol/L, PKCβ2 [9, 19]: 1.78%; %-inhibition at 1 µmol/L, SRM [9, 20]: 102%
O=C(Nc1cnn2ccc(N3CCC[C@@H]3c3cc(F)ccc3F)nc12)N1CC[C@H](O)C1 [larotrectinib] | – | – | – | – | – | – | – | – | – | – | – | – | – | higher IC50 in MOLM-13 and MV4-11 compared to AP-1060 ([14]; cell viability): more than 1000 fold
CCc1nc(C(N)=O)c(Nc2ccc(N3CCC(N4CCN(C)CC4)CC3)c(OC)c2)nc1NC1CCOCC1 [gilteritinib] | – | – | – | – | – | – | – | – | – | – | – | – | – | potency in the FLT3 ITD-mutant cell lines compared to midostaurin ([14]; on average): eight times more potent
C=CC(=O)Nc1cc(Nc2nccc(-c3cn(C)c4ccccc34)n2)c(OC)cc1N(C)CCN(C)C [osimertinib] | – | – | -9% | -1.74% | 19% | 22% | 53% | -13% | 99% | 6.54% | 11% | 9% | 80% | lower IC50 (higher potency) in EGFR-mutant compared to EGFR wild-type cell lines (EGFR-mutant cell lines): 33 fold; %-inhibition at 1 µmol/L, SRC [15]: 9%; %-inhibition at 1 µmol/L, FYN [isoform b] [9]: 14%; %-inhibition at 1 µmol/L, LYNb [9]: 10%; %-inhibition at 1 µmol/L, PKCβ2 [9]: 17%; %-inhibition at 1 µmol/L, SRM [9]: 32%; %-inhibition at 1 µmol/L, FER [16]: 78%
CC#CC(=O)N1CCC[C@H]1c1nc(-c2ccc(C(=O)Nc3ccccn3)cc2)c2c(N)nccn12 [acalabrutinib] | – | 44 fold | -4.73% | -5% | -3.53% | -6% | 1.13% | 3% | 5.27% | -2.29% | 5.51% | -2.57% | -1.42% | preferential targeting of EGFR-mutant cell lines (EGFR-mutant cell lines; MANOVA): did not significantly target; %-inhibition at 1 µmol/L, SRC [15]: 10%; %-inhibition at 1 µmol/L, FYN [isoform b] [9, 17]: -1.25%; %-inhibition at 1 µmol/L, LYNb [9, 18]: -2%; %-inhibition at 1 µmol/L, PKCβ2 [9, 19]: -12%; %-inhibition at 1 µmol/L, SRM [9, 20]: 39%; %-inhibition at 1 µmol/L, FER [16]: -2.54%
COc1ccc(CN2C3CC2CN(c2ccc(-c4cc(OCC(C)(C)O)cn5ncc(C#N)c45)cn2)C3)cn1 [selpercatinib] | – | – | – | – | – | – | – | – | – | – | – | – | – | activity in FGFR-altered versus wild-type cell lines (FGFR-altered cell lines; MANOVA): around ten times more active; IC50 (FGFR3): 50 nM
COc1cc2ncnc(Nc3ccc(F)c(Cl)c3)c2cc1NC(=O)/C=C/CN1CCCCC1 [dacomitinib] | about 110 fold | – | – | – | – | – | – | – | – | – | – | – | – | –
CCN1C(=O)N(c2c(F)c(OC)cc(OC)c2F)Cc2cnc3[nH]c(CN4CCOCC4)cc3c21 [pemigatinib] | – | – | – | – | – | – | – | – | – | – | – | – | – | higher potency in FGFR-altered compared to FGFR wild-type cell lines (FGFR-altered cell lines; on average, MANOVA): over 500 fold; IC50 (FGFR-altered cell lines; read-out: average IC50 in the eight FGFR-altered cell lines): 4.3 nM
CO[C@]1(C(=O)N[C@@H](C)c2ccc(-n3cc(F)cn3)nc2)CC[C@H](c2nc(C)cc(Nc3cc(C)[nH]n3)n2)CC1 [pralsetinib] | – | – | – | – | – | – | – | – | – | – | – | – | – | activity in FGFR-altered versus wild-type cell lines (FGFR-altered cell lines; MANOVA): around ten times more active; IC50 (FGFR3): 50 nM
C=CC(=O)N1CCC([C@@H]2CCNc3c(C(N)=O)c(-c4ccc(Oc5ccccc5)cc4)nn32)CC1 [zanubrutinib] | 8 fold | 45 fold | – | – | – | – | – | – | – | – | – | – | – | –
